This passage reports GI50 and TGI results from PubChem BioAssay (NCI).

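Step 1: Grow cells in 96-well plates. Step 2: Expose to compound for 48 hours at 5 concentrations. Step 3: Interpolate endpoints linearly; if unreached, use highest concentration. GI50 is the concentration that inhibits growth by half. TGI marks complete inhibition of growth.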

Some test systems named below: SK-MEL-2 melanoma; SNB-75 CNS; RPMI-8226 leukemia; NCI-H23 lung; SNB-19 CNS; SK-OV-3 ovarian; SK-MEL-5 melanoma; KM12 colon; HCT-15 colon; NCI-H460 lung.
Assay in all cases: NCI tumour cell line growth inhibition, 48 h

For `O=[N+]([O-])/C=C\c1ccc(Cl)c(Cl)c1`, the GI50 was 2.56 µM in the assay on SK-MEL-2 melanoma; 4.47 µM in the assay with SNB-75 CNS; 0.249 µM with RPMI-8226 leukemia; 1.63 µM in the assay with NCI-H23 lung; 3.77 µM in the assay on SNB-19 CNS; 14.4 µM in the assay with SK-OV-3 ovarian. For the same compound, the GI50 with SK-MEL-5 melanoma is 3.57 µM; with KM12 colon it was 2.08 µM; in the assay with HCT-15 colon, 3.23 µM; in the assay on NCI-H460 lung it was 3.64 µM. The TGI in the assay with SK-MEL-2 melanoma is 7.61 µM; in the assay with SNB-75 CNS, 17.5 µM; in the assay with RPMI-8226 leukemia, 0.624 µM; in the assay on NCI-H23 lung, 3.31 µM; in the assay on SNB-19 CNS, 16.7 µM; in the assay with SK-OV-3 ovarian, 27.4 µM. The TGI worked out at 14 µM in the assay on SK-MEL-5 melanoma, 4.56 µM in the assay with KM12 colon, 17 µM with HCT-15 colon and 25.1 µM in the assay on NCI-H460 lung.
Consider `CCNCCNc1cc(-c2ccc(C(=O)OC)cc2)c(C#N)c2nc3ccccc3n12`, for which the GI50 in the assay with SK-MEL-2 melanoma was 5.15 µM; with SNB-75 CNS, 1.53 µM; in the assay with RPMI-8226 leukemia, 1.99 µM; with NCI-H23 lung, 3.82 µM; with SNB-19 CNS, 4.57 µM; with SK-OV-3 ovarian, 2 µM. For the same compound, the GI50 in the assay on SK-MEL-5 melanoma is 1.7 µM; in the assay with KM12 colon it was 2.59 µM; with HCT-15 colon, 1.47 µM; in the assay on NCI-H460 lung it was 1.42 µM. For the same compound, the TGI was 31.5 µM with SK-MEL-2 melanoma; 3.17 µM in the assay with SNB-75 CNS; 5.3 µM in the assay with RPMI-8226 leukemia; > 100 µM in the assay on NCI-H23 lung; > 100 µM in the assay with SNB-19 CNS; 4.8 µM with SK-OV-3 ovarian. Further, the TGI was 3.11 µM in the assay on SK-MEL-5 melanoma, > 100 µM in the assay on KM12 colon, 4.65 µM in the assay on HCT-15 colon and 3.31 µM in the assay with NCI-H460 lung.
Regarding `CC1=C(C(=O)Nc2ccc3[nH]ncc3c2)C(c2ccc3ccccc3c2)CC(=O)N1` (stereo not given), the GI50 in the assay on SK-MEL-2 melanoma was > 25 µM; in the assay with SNB-75 CNS, 1.54 µM; with RPMI-8226 leukemia, > 25 µM; in the assay with NCI-H23 lung, 19 µM; in the assay on SNB-19 CNS, > 25 µM; in the assay on SK-OV-3 ovarian, > 25 µM. Also, the GI50 in the assay with SK-MEL-5 melanoma was > 19.3 µM; with KM12 colon, 17.8 µM; in the assay on HCT-15 colon, > 25 µM; in the assay on NCI-H460 lung it was > 25 µM. The TGI in the assay with SK-MEL-2 melanoma was > 25 µM; in the assay with SNB-75 CNS it was > 20.1 µM; in the assay on RPMI-8226 leukemia, > 25 µM; in the assay with NCI-H23 lung, > 25 µM; in the assay with SNB-19 CNS, > 25 µM; in the assay with SK-OV-3 ovarian it was > 25 µM. Also, the TGI in the assay with SK-MEL-5 melanoma, with KM12 colon, with HCT-15 colon and in the assay with NCI-H460 lung was > 25 µM in each case.
As to `COc1cc(OC)cc(-c2ccc(-c3ccc(C(=N)N)o3)o2)c1`, the GI50 with SK-MEL-2 melanoma was 2.44 µM; in the assay on SNB-75 CNS, 2.2 µM; in the assay with RPMI-8226 leukemia, 2.25 µM; in the assay with NCI-H23 lung, 9.25 µM; with SNB-19 CNS, 3.02 µM; in the assay on SK-OV-3 ovarian, 14.9 µM. Also, the GI50 in the assay with SK-MEL-5 melanoma was 1.95 µM; with KM12 colon, 2.45 µM; in the assay with HCT-15 colon it was 3.18 µM; with NCI-H460 lung, 2.32 µM. Further, the TGI worked out at 5.35 µM in the assay on SK-MEL-2 melanoma; 13.8 µM with SNB-75 CNS; 5.68 µM with RPMI-8226 leukemia; 22.3 µM with NCI-H23 lung; 10.6 µM in the assay with SNB-19 CNS; 28.5 µM in the assay on SK-OV-3 ovarian. Also, the TGI in the assay on SK-MEL-5 melanoma turned out to be 3.39 µM; in the assay on KM12 colon, 6.56 µM; in the assay with HCT-15 colon, 10.4 µM; in the assay on NCI-H460 lung, 5.17 µM.
Consider `N#Cc1ccc(C#Cc2ccccc2C#CCCCCO)cc1`, for which the GI50 was 17.1 µM in the assay with SK-MEL-2 melanoma; 42.2 µM in the assay on SNB-75 CNS; 20.6 µM in the assay with RPMI-8226 leukemia; 17.2 µM in the assay on NCI-H23 lung; 15.8 µM in the assay with SNB-19 CNS; 18.2 µM in the assay with SK-OV-3 ovarian. Moreover, the GI50 in the assay on SK-MEL-5 melanoma was 17.5 µM; in the assay with KM12 colon it was 17.8 µM; in the assay on HCT-15 colon, 15.6 µM; in the assay on NCI-H460 lung, 19.7 µM. The TGI in the assay with SK-MEL-2 melanoma was 36.4 µM; with SNB-75 CNS, > 100 µM; with RPMI-8226 leukemia, 44.1 µM; in the assay on NCI-H23 lung, 33.8 µM; in the assay with SNB-19 CNS, 29.9 µM; in the assay on SK-OV-3 ovarian it was 33.5 µM. Also, the TGI with SK-MEL-5 melanoma turned out to be 31.9 µM; with KM12 colon, 36.2 µM; in the assay with HCT-15 colon, 29 µM; in the assay with NCI-H460 lung it was 49 µM.
Turning to `COc1ccc2ccc3c(c2c1)CN1CCc2cc(OC)c(OC)cc2C1C3` (stereo not given), the TGI is > 100 µM in the assay with SK-MEL-2 melanoma; 96.8 µM in the assay on SNB-75 CNS; > 100 µM in the assay with RPMI-8226 leukemia; > 100 µM in the assay on NCI-H23 lung; > 100 µM with SNB-19 CNS; > 100 µM in the assay on SK-OV-3 ovarian. In addition, the TGI in the assay on SK-MEL-5 melanoma, with KM12 colon, in the assay on HCT-15 colon and in the assay with NCI-H460 lung was > 100 µM throughout.
As to `C[C@]12CC[C@H](O)CC1=CC[C@@H]1[C@@H]2CC[C@]2(C)C(c3cccnc3)=CC[C@@H]12`, the GI50 in the assay on SK-MEL-2 melanoma was 34.5 µM; with SNB-75 CNS it was 7.69 µM; in the assay on RPMI-8226 leukemia, 5.1 µM; in the assay with NCI-H23 lung it was 12.2 µM; with SNB-19 CNS, 26.8 µM; with SK-OV-3 ovarian, > 33.8 µM. In addition, the GI50 is 46.1 µM with SK-MEL-5 melanoma, 76.3 µM with KM12 colon, 25.8 µM with HCT-15 colon and > 100 µM in the assay on NCI-H460 lung. Moreover, the TGI is > 100 µM with SK-MEL-2 melanoma; > 48.7 µM with SNB-75 CNS; > 100 µM with RPMI-8226 leukemia; > 100 µM with NCI-H23 lung; > 100 µM in the assay with SNB-19 CNS; > 100 µM in the assay with SK-OV-3 ovarian. Further, the TGI with SK-MEL-5 melanoma, with KM12 colon, in the assay on HCT-15 colon and in the assay on NCI-H460 lung was > 100 µM each time.
